Measurements taken from the supplement of paper PMC10307832.

Key:
Assay in all cases: relative viability (nuclei count vs DMSO), 5 days (fraction); higher = more cells survive
Selumetinib + Decitabine = compound: Cn1cnc2c(F)c(Nc3ccc(Br)cc3Cl)c(C(=O)NOCCO)cc21 [Selumetinib] + Nc1ncn([C@H]2C[C@H](O)[C@@H](CO)O2)c(=O)n1 [Decitabine] (partner 2 µM)
How it was run: (§1)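 Values are medians from duplicate plates. Each reflects relative viability, defined as the nuclei count of treated wells over that of vehicle wells. Lung cancer cell lines in 1536-well plates were pin-tool dosed one day after seeding with one drug alone or with a fixed anchor-drug dose plus five library-drug doses (not always all listed) in √10 steps, then fixed, stained and imaged at 4× after 5 days.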

Selumetinib + Luminespib = compound: Cn1cnc2c(F)c(Nc3ccc(Br)cc3Cl)c(C(=O)NOCCO)cc21 [Selumetinib] + CCNC(=O)c1noc(-c2cc(C(C)C)c(O)cc2O)c1-c1ccc(CN2CCOCC2)cc1 [Luminespib] (partner 0.01 µM)
How it was run: as §1

Selumetinib + Alpelisib = compound: Cn1cnc2c(F)c(Nc3ccc(Br)cc3Cl)c(C(=O)NOCCO)cc21 [Selumetinib] + Cc1nc(NC(=O)N2CCC[C@H]2C(N)=O)sc1-c1ccnc(C(C)(C)C(F)(F)F)c1 [Alpelisib] (partner 2 µM)
How it was run: as §1

Venetoclax + Dasatinib = compound: CC1(C)CCC(CN2CCN(c3ccc(C(=O)NS(=O)(=O)c4ccc(NCC5CCOCC5)c([N+](=O)[O-])c4)c(Oc4cnc5[nH]ccc5c4)c3)CC2)=C(c2ccc(Cl)cc2)C1 [Venetoclax] + Cc1nc(Nc2ncc(C(=O)Nc3c(C)cccc3Cl)s2)cc(N2CCN(CCO)CC2)n1 [Dasatinib] (partner 0.075 µM)
How it was run: as §1

For UMC-11, which relative viability (Selumetinib + Decitabine; first compound 0.02 µM) is on record?
The relative viability was 0.653.

And the relative viability (Selumetinib + Decitabine; first compound 0.06325 µM)?
The relative viability was 0.624.

And the relative viability (Selumetinib + Decitabine; first compound 0.2 µM)?
Its relative viability is 0.619.

What about the relative viability (Selumetinib + Decitabine; first compound 0.6325 µM) of the same cell line?
Its relative viability is 0.643.

And the relative viability (Selumetinib + Luminespib; first compound 0.02 µM)?
Its relative viability is 1.14.

And the relative viability (Selumetinib + Luminespib; first compound 0.06325 µM)?
Its relative viability is 0.869.

What about the relative viability (Selumetinib + Luminespib; first compound 0.2 µM) of the same cell line?
Its relative viability is 1.08.

And the relative viability (Selumetinib + Luminespib; first compound 0.6325 µM)?
The relative viability was 0.967.

And the relative viability (Selumetinib + Alpelisib; first compound 0.02 µM)?
Its relative viability is 0.97.

What about the relative viability (Selumetinib + Alpelisib; first compound 0.06325 µM) of the same cell line?
Its relative viability is 1.1.

And the relative viability (Selumetinib + Alpelisib; first compound 0.2 µM)?
Its relative viability is 1.01.

And the relative viability (Selumetinib + Alpelisib; first compound 0.6325 µM)?
Its relative viability is 0.986.

And the relative viability (Venetoclax + Dasatinib; first compound 0.01 µM)?
Its relative viability is 0.45.

What about the relative viability (Venetoclax + Dasatinib; first compound 0.03162 µM) of the same cell line?
The relative viability was 0.518.

And the relative viability (Venetoclax + Dasatinib; first compound 0.1 µM)?
The relative viability was 0.463.

And the relative viability (Venetoclax + Dasatinib; first compound 0.3162 µM)?
Its relative viability is 0.505.

What about the relative viability (Venetoclax + Dasatinib; first compound 1 µM) of the same cell line?
The relative viability was 0.491.
